These results are taken from US5843941A, “Ras farnesyl transferase inhibitors” (Genentech, Inc., priority 1994, dated 1998).

Broadly, the inhibition is the percentage by which the read-out fell short of the control. A lower inhibition goes with a response near the control.

Experiment [1] concerns the target T1, CAAX GG transferase (Rattus norvegicus, UniProt P53610+Q04631).
T1 construct: partially purified CAAX GG transferase; from tissue
Put plainly: Inhibition of CAAX GG transferase (geranylgeranyltransferase). Particulars: 31B (leucine) vs 27B (methionine); FIG. 2B. In kind it is biochemical. The source says:
FIG. 1 compares the inhibitory activity of compound 27B (denoted as BG269B in the figure) on protein prenyltransferases. […] Two other prenyltransferases, both of which transfer 20-carbon geranylgeranyl (GG) groups, have been identified in rat brain. One of thesse, CAAX GG transferase, attaches GG groups to proteins that terminate in CAAX sequences in which X is leucine.
The conditions used to assay the inhibition of CAAX farnesyltransferase are identical to those described above for the in vitro, assay described in Example 121. In FIG. 1B the assay mixture contained, in a final volume of 50 μl, 50 mM sodium Hepes (pH 7.2), 5 mM MgC12, 5 mM DTT, 0.3 mM Nonidet P-40, 0.2% octyl β-glucoside, 1% DMSO, 0.5 μM all trans [3H]geranylgeranyl pyrophosphate (33,000 dpm/pmol; ARC, Inc.), 5 μM recombinant p21^H-rasCVLL, 6.3 μg partially purified CAAX GG transferase (see Seabra, M. C., Reiss, Y., Casey, P. J., Brown, M. S., and Goldstein, J. L. Cell 268, 4055 (1993)) and varying concentrations of the indicated inhibitor. In FIG. 1C, the assay mixture contained in a final volume of 50 μl, 50 mM sodium Hepes (pH 7.2), 5 mM MgCl2, 5 mM DTT, 0.3 mM Nonidet P-40, 0.2% octyl β-D-glucoside, 1% DMSO, 0.5 μM all trans [3H]geranylgeranyl pyrophosphate (33,000 dpm/pmol; ARC, Inc.), 2 μM recombinant Rab1A, 2 ng each of purified Components A and B of Rab GG transferase (see Seabra, M. C., Goldstein, J. L., Sudhof, T. C., and Brown, M. S. J. Biol. Chem. 267, 14497 (1992)) and varying concentrations of the indicated inhibitor.
Each assay was carried out as described in Examples 121 and 122.

Experiment [2] has as its system farnesylated proteins F1, F2 and F3 in Met18b-2 cells. The experiment in a line: Inhibition of intracellular farnesylation in intact Met18b-2 cells, Triton-soluble proteins F1, F2, F3. In kind it is cell-based, Chinese hamster. Particulars: 250 μM; FIG. 3. The source says:
(§1) To study farnesylation in intact cells we used Met18b-2 cells, a line of Chinese hamster ovary (CHO) cells that takes up [3H]mevalonate efficiently (see Faust, J., and Krieger, M. J. Biol. Chem. 262, 1966 (1987)) owing to the production of a mevalonate transport protein (see Kim, C. M., Goldstein, J. L., Brown, M. S. J. Biol. Chem. 267, 23113 (1992)). The [3H]mevalonate is converted by the cells into [3H]farnesyl pyrophosphate and [3H]geranylgeranyl pyrophosphate, which are then attached to proteins (Kim, C. M., Goldstein, J. L., Brown, M. S. J. Biol. Chem. 267, 23113 (1992)). In the assay, stock cultures of Met18b-2 cells were seeded at a density of 3-105 cells per 60 mm dish in 3 ml of medium A (Dulbecco's modified Eagle medium/Ham's F12 medium (1:1, v/v) containing 100 U/ml penicillin and 100 μg/ml streptomycin) supplemented with 5% (v/v) fetal calf serum (FCS). On day 3, each monolayer was refed with 1 ml medium A supplemented with 1% FCS (dialyzed against 0.15 M NaCl). At this point the cells were treated with 100 μM compactin (see Brown, M. S., Faust, J. R., Goldstein, J. L., Kaneko, I., and Endo, A. J. Biol. Chem. 253, 1121 (1978)) which blocks the synthesis of unlabeled mevalonate within the cells. Each compound was dissolved at 25 mM in DMSO/10 mM DTT immediately before use and 10 μl of this solution added directly. After 2 hr incubation at 37° C., each monolayer received 100 μCi [3H]mevalonate (60 Ci/mmol, American Radiolabeled Chemicals, Inc.) added in 100 μl of the medium A, and the incubation continued for 4 hr. The cells were harvested by rinsing three times with 3 ml of 50 mM Tris-HCl/0.15 M NaCl (pH 7.5). 300 μl of lysis buffer (0.5X Dulbecco's phosphate-buffered saline containing 1% Triton X-100, 5 μg/ml leupeptin, 5 μg/ml pepstatin, 0.5 mM phenylmethylsulfonyl fluoride, and 0.05 U/ml aprotinin) was added to each monolayer. After incubation on ice for 5 mon, the lysates were centrifuged 30 sec in a microfuge at 12,000 g. The resulting supernatant was tranferred to a new tube, and each pellet was resuspended in 60 μl of lysis buffer. Protein concentrations were determined using the BCA protein assay reagent (Pierce) according to the manufacturer's instructions. Detergent-soluble (supernatant) and -insoluble (pellet) samples were mixed with 2X SDS sample buffer (see Laemmli, U. K. Nature 227, 680 (1970)) and heated at 95° C. for 5 min before electrophoresis. Each lane contained 90 μg protein, and was run on a 12.5% SDS-polyacrylamide gel. The gel was dried, treated with ENTENSIFY (NEN-DuPont), and exposed to Kodak XOMAT-AR film for 9 h at -80° C. to allow visualization of all prenylated proteins. Migration of [14C]methylated molecular weight standards (Amersham) were used as markers.
The results of this assay are shown in FIG. 3, using a final concentration of 250 μM for each inhibitor. […] As shown in the figure, none of the control peptides or control benzodiazepine-peptideomimetics altered the prenylation of proteins in intact cells.
Using the same cells and procedures followed above for Example 125, we measured the dose dependence upon the inhibition of farnesylation in intact cells. […] Compound 37B inhibited the famesylation of F1-3 detectably at 10 μM, and almost completely at 25 μM.
In this manner, it is possible to obtain data regarding the comparative potency of these inhibitors upon the level of intracellular farnesylation. We have chosen to report the EC90% values for these inhibitors as the concentration required for a reduction in the Triton- soluble labelling (denoted F-1, F-2, and F-3) to 90% of control cells (untreated).

For experiment [3], the system named is nuclear lamins A and B in Met18b-2 cells. The experiment in a line: [3H]mevalonate labeling of farnesylated nuclear lamins in Met18b-2 cells. The experiment is classed as cell-based, Chinese hamster. Particulars: 250 μM; FIG. 3. The source says:
To study farnesylation in intact cells we used Met18b-2 cells, a line of Chinese hamster ovary (CHO) cells that takes up [3H]mevalonate efficiently (see Faust, J., and Krieger, M. J. Biol. Chem. 262, 1966 (1987)) owing to the production of a mevalonate transport protein (see Kim, C. M., Goldstein, J. L., Brown, M. S. J. Biol. Chem. 267, 23113 (1992)). The [3H]mevalonate is converted by the cells into [3H]farnesyl pyrophosphate and [3H]geranylgeranyl pyrophosphate, which are then attached to proteins (Kim, C. M., Goldstein, J. L., Brown, M. S. J. Biol. Chem. 267, 23113 (1992)). In the assay, stock cultures of Met18b-2 cells were seeded at a density of 3-105 cells per 60 mm dish in 3 ml of medium A (Dulbecco's modified Eagle medium/Ham's F12 medium (1:1, v/v) containing 100 U/ml penicillin and 100 μg/ml streptomycin) supplemented with 5% (v/v) fetal calf serum (FCS). On day 3, each monolayer was refed with 1 ml medium A supplemented with 1% FCS (dialyzed against 0.15 M NaCl). At this point the cells were treated with 100 μM compactin (see Brown, M. S., Faust, J. R., Goldstein, J. L., Kaneko, I., and Endo, A. J. Biol. Chem. 253, 1121 (1978)) which blocks the synthesis of unlabeled mevalonate within the cells. […] Protein concentrations were determined using the BCA protein assay reagent (Pierce) according to the manufacturer's instructions. […]

For experiment [4], the system named is low molecular weight GTP binding proteins (SMG) in Met18b-2 cells. Put plainly: [3H]mevalonate labeling of low molecular weight GTP binding proteins (SMG) in Met18b-2 cells. To be noted: 250 μM; FIG. 3. In kind it is cell-based, Chinese hamster.
Source text: as §1, with “The resulting supernatant was tranferred to a new tube, and each pellet was resuspended in 60 μl of lysis buffer.” left out, “Detergent-soluble (supernatant) and -insoluble (pellet) samples were mixed with 2X SDS sample buffer (see Laemmli, U. K. Nature 227, 680 (1970)) and heated at 95° C. for 5 min before electrophoresis. Each lane contained 90 μg protein, and was run on a 12.5% SDS-polyacrylamide gel. The gel was dried, treated with ENTENSIFY (NEN-DuPont), and exposed to Kodak XOMAT-AR film for 9 h at -80° C. to allow visualization of all prenylated proteins. Migration of [14C]methylated molecular weight standards (Amersham) were used as markers.” left out

In experiment [5] the test system is ras-transformed rat-1 fibroblasts. The experiment in a line: Cell growth of ras-transformed rat-1 fibroblasts. The experiment is classed as cell-based. Particulars: Fibroblast, 240 h, 10 days, FIG. 7 Panel B. As for the experimental part:
(§2) To examine the effects of farnesyltransferase inhibition on cell growth, three cell lines (ras-transformed rat-1, src-transformed rat-1, and parental rat-1 cells) were seeded (see FIG. 7) at low density and allowed to grow for 10 days in the absence or presence of increasing concentrations of BZA-5B (compound 37). See Example 128 for description of cells. On day 0, cells were plated in monolayer culture at 2×10^3 cells per well (24-well plates) in 1 ml DMEM supplemented with 10% fetal calf serum, 100 U/ml penicillin, 100 μg/ml streptomycin, 0.5 mM DTT, 0.025% DMSO, and the indicated concentration of BZA-5B (compound 37). On days 3 and 7, cells were washed and refed with the same medium. At the time indicated in FIG. 7, cells were harvested by trypsinization and counted in a Coulter counter. Panels A, C, E show the growth rate of each cell line in the absence of inhibitor. Panels B, D, F show the inhibition of growth as a function of concentration of BZA-5B at each time point. The "100% values" correspond to the appropriate cell numbers in Panels A, C, E at the indicated time. Each value represents a single incubation. As shown in the panels A, C, and E, all three cell lines grew logarithmically with no added inhibitor. […] The growth of src-transformed (Panel D) and untransformed cells (Panel F) were not affected at concentrations of BZA-5B up to 25 μM.

Experiment [6] deals with src-transformed rat-1 fibroblasts. Put plainly: Cell growth of src-transformed rat-1 fibroblasts. In kind it is cell-based. Particulars: up to 25 μM; FIG. 7 Panel D. As for the experimental part:
as §2

In experiment [7] the test system is untransformed parental rat-1 fibroblasts. Put plainly: Cell growth of untransformed parental rat-1 fibroblasts. Particulars: up to 25 μM; FIG. 7 Panel F. The experiment is classed as cell-based. As for the experimental part: as §2

T1 sequence (P53610 whole entry, one chain of several): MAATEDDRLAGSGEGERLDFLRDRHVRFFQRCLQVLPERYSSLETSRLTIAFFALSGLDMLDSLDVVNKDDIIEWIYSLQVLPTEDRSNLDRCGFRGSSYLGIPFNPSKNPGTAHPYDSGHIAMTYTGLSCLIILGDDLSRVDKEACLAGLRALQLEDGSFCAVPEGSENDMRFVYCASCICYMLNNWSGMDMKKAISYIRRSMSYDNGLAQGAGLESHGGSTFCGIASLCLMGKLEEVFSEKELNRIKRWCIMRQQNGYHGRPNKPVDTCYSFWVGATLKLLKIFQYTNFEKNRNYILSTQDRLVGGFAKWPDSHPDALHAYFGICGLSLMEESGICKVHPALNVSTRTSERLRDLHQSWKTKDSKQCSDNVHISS

In the case of `CC(C)C[C@H](NC(=O)CN1C(=O)C(N(C)C(=O)[C@@H](N)CS)N=C(c2ccccc2)c2ccccc21)C(=O)O` (single isomer, unassigned) [31B, N-[[3-[(2-amino-3-mercapto-1-oxopropyl)methylamino]-2,3-dihydro-2-oxo-5-phenyl-1H -1,4-benzodiazepin-1-yl]acetyl]-L-leucine], in experiment [1], the “fold more sensitivity of CAAX geranylgeranyltransferase to leucine-terminated inhibitor” value worked out at 5 fold. The “labeling of Triton-soluble farnesylated proteins (F1 to F3)” value in experiment [2] is “markedly decreased the labeling of all three Triton-soluble farnesylated proteins (F1 to F3)”. The “labeling of farnesylated lamins (F-NL)” value in experiment [3] is reported as “reduced moderately the labeling of the farnesylated lamins”. In experiment [4], the “effect on low molecular weight GTP binding proteins (SMG)” value was “little effect on the low molecular weight GTP binding proteins”.

`COC(=O)[C@H](CCSC)NC(=O)CN1C(=O)C(N(C)C(=O)[C@@H](N)CS)N=C(c2ccccc2)c2ccccc21` (stereo partly shown) [BZA-5B] showed an inhibition at 25 µM in experiment [5] of around 90%. Further, the “growth of src-transformed cells” value in experiment [6] was “not affected”. In addition, in experiment [7], the “growth of untransformed cells” value is “not affected”.
